Test results from US20260306502A1, “MITOCHONDRIAL UNCOUPLERS FOR TREATMENT OF METABOLIC DISEASES AND CANCER” (Mito Biopharma, LLC, priority 2022, published 2026).
“Also recorded” adds a separate entry of the source.

Columns and labels:
C2C12 cells = assay: Mitochondrial uncoupling activity by oxygen consumption rate (OCR) assay, Seahorse, in presence of oligomycin; format: cell-based, mouse; settings: for minimal effective concentration: Mus musculus, C2C12, in the presence of oligomycin 2.5 μM, read-out: COCR-min: minimal concentration increasing OCR in the presence of oligomycin; for effect on oxygen consumption rate (OCR): in words
How it was run: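 Mouse C2C12 myoblasts grown in 10% FBS medium had OCR measured on Seahorse XF96/XF24 sequentially: basal, after 2.5 μM oligomycin (final), then after compound at varying concentrations. Rotenone/antimycin A confirmed mitochondrial origin. COCR-min is the minimal compound concentration inducing OCR in the presence of oligomycin.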

C57Bl6 mice = assay: Determination of acute toxicity; settings: in words
Procedure: Acute toxicity tests were performed on C57Bl6 mice, male, 6 weeks old, n=6. […] The tests were performed under fed condition, by oral gavage of 100-400 μL compound suspension according to the body weight to desired dosages (mg/kg). The mice were supplied with drinking water all through the testing time. […] MED was determined in diabetic and steatosis mouse models (Table 9).
Acute toxicity tests were performed on C57Bl6 mice, male, 6 weeks old, n=6 for each dose. […] The tests were performed under fed condition, by oral gavage of 100-400 μL compound suspension according to the body weight to desired dosages (mg/kg). The mice were supplied with drinking water all through the testing time. Mouse behaviors were monitored every 15-30 minutes.

[1] = system: LX-2 cells (human hepatic stellate cells); assay: Inhibition of TGFβ-induced hepatic stellate cell differentiation into myofibroblast-like cells; format: cell-based; settings: TGFβ 10 ng/ml; for minimal effective concentration: Homo sapiens, LX-2, hepatic stellate cell differentiation to myofibroblast-like cells, 24 hours, read-out: Minimal inhibitory concentration; for inhibition of TGFβ-induced hepatic stellate cell differentiation: in words
Procedure: Liver fibrosis is one hallmark of NASH. […] This process could be modeled in vitro using the hepatic stellate differentiation experiment. The human hepatic stellate LX-2 cells were cultured within DMEM (Dulbecco's Modified Eagle Media, pH 7.4) supplied with 2% fetal bovine serum, 4.5 g/l glucose and 2 mM glutamine to 100 percent confluence. […] Cellular morphology was then examined under a microscope. As shown in FIG. 16 to FIG. 17, hepatic stellate cells could be induced by TGF-beta to differentiate into myofibroblast-like cells.

[2] = system: cultured mammalian cells, the NIH-3T3 cells, C2C12 cells, and other mammalian cell lines; assay: Mitochondrial membrane potential (MMP) assay, TMRE (or DilC1(5)) staining, related to OCR induction; format: cell-based; settings: in words; TMRE and DilC1(5) staining
Procedure: Mitochondrial membrane potential assay was performed using the standard TMRE (tetramethylrhodamine ethyl ester) staining method with cultured mammalian cells, the NIH-3T3 cells, C2C12 cells, and other mammalian cell lines. Cells were seeded in 6-well plates and cultured in DMEM medium supplemented with 10% fetal bovine serum and 2 mM glutamine. Cells were allowed to grow to the logarithmic growth phase prior to experiments. The cells were treated with each individual compound at various concentrations for two hours, followed by staining with TMRE at a final concentration of 100 nM for 15 minutes. The cells were then washed once with PBS, and examined under fluorescence microscopy. Cells treated with various concentrations of niclosamide ethanolamine were used as a positive control.
In some examples, mitochondrial membrane potential was measured with DilC1(5) staining. Briefly, DilC1(5) was added to the cells to 50 nM final concentration and the cells were incubated at 37° C., 5% CO2, for 15 to 30 minutes. Cells were washed once by adding 2 mL of warm phosphate-buffered saline (PBS). Mitochondrial staining was determined by fluorescence microscopy with 633 nm excitation using standard filters for far-red emission.
Using the ratio between C10% TMRE (the concentration at which 10% MMP remains, i.e. 90% MMP is lost) and Cmin-OCR (the concentration at which minimal OCR induction is observed), we categorized the MMP-retaining uncouplers into two groups.

[3] = Short-term (10-day) escalating toxicology study in CD-1 mice; format: in vivo, mouse; settings: mouse, in vivo; oral gavage once daily, 10 days, male CD-1 mice; read-out: NOAEL (no-observable-adverse-effect-level)
Procedure: (§1) Clinical signs, body weights, food consumptions, rectal temperature, hematology, serum chemistry, plasma exposure, necropsies, tissue histopathology, were examined.
(§2) The compound was administered as a homogeneous suspension in 0.5% CMC+1% Tween80 in water in a volume of 10 mL/kg for oral administration. There were two arms in the study: 5 mice in the toxicology group and 5 mice in the toxicokinetic (TK) satellite group. Clinical signs were recorded twice daily. Body weight and food consumption were recorded once daily. Rectal temperature was recorded once every two days for a total of 5 times throughout the study. Necropsies were conducted at the termination of the study. Hematology, serum chemistry, plasma exposure, and tissue distribution were evaluated post 10th dosing in the TK satellite animals. Histopathology was examined in selected organs/tissues. Based on the outcomes of the toxicology parameters, NOAEL (no-observable-adverse-effect-level) and MTD (maximal tolerable dose) were determined.

CD-1 mice = assay: as above; format: in vivo, mouse; settings: in words
Procedure: as §1, §2

[4] = system: high-fat diet (HFD)-induced diabetic mouse model; assay: Efficacy in high-fat diet (HFD)-induced diabetic/fatty liver mouse model; format: in vivo; settings: HFD mice, 3 weeks; for reversing fatty liver (liver steatosis, H&E histology): 5 mg/kg PO daily
Procedure: (§3) For HFD induced diabetic mouse model, C57Bl6 mice (male, n=6) were induced to obese and diabetic conditions by feeding high-fat diet (HFD, 60% fat calories, Research Diet, Inc. New Brunswick, NJ) for 3-4 months. […] During the 3-week period, the mice continued feeding HFD. […] The blood glucose levels were measured after an overnight fast, plasma insulin levels were tested after 5-6 hours fast, and the glycated HbA1c levels were determined in whole blood samples.
FIG. 15C and FIG. 15D show liver sections from mice fed HFD following 3 weeks of treatment with Compounds 25 and 64, respectively (P.O. dosing of 5 mg/kg, by daily gavage).
(§4) Experiments were similarly performed with other compounds, in either high-fat diet induced diabetes and fatty liver models, or in db/db mouse model, or in both, by daily oral gavage administration with low dosages.

[5] = system: HFD-induced diabetic mouse model and db/db mouse model; assay: Efficacy in HFD-induced diabetic and db/db mouse models; format: in vivo; settings: for reducing blood glucose, blood insulin, and glycated HbA1c: 5 mg/kg once daily PO, db/db and HFD mice; for minimal effective dose: Mus musculus, both HFD and db/db models, oral daily gavage, read-out: Efficacious dosage to reduce blood glucose in mouse models, oral daily gavage
Procedure: as §3, §4

COCCN(CCOC)Cc1cc(Cl)cc(C(=O)Nc2nc3ccc(C(F)(F)F)cc3s2)c1O [Compound 25, 3-((bis(2-methoxyethyl)amino)methyl)-5-chloro-2-hydroxy-N-(6-(trifluoromethyl)benzo[d]thiazol-2-yl)benzamide]
minimal effective concentration (C2C12 cells): < 5 µM | effect on oxygen consumption rate (OCR) (C2C12 cells): very robust OCR induction at 3.0, 6.0, and 9.0 μM; also recorded: effectively uncouples mitochondria (induces OCR | acute toxicity profile over DNP (C57Bl6 mice): drastically improved acute toxicity profiles over DNP | minimal effective concentration [1]: 7.5 µM | inhibition of TGFβ-induced hepatic stellate cell differentiation [1]: effectively inhibit the differentiation process; also recorded: prevents TGFβ-induced differentiation of LX-2 cells | inhibition of TGFβ-induced hepatic stellate cell differentiation ([1]; listed as Compounds 25): able to directly inhibit hepatic stellate cell (HSC) activation in vitro | effect on mitochondrial membrane potential (MMP) [2]: does not cause observable MMP reduction; also recorded: does not appear to reduce MMP over a wide concentration range; also recorded: without reducing MMP | NOAEL at 240 h [3]: 50 mg/kg/day | short-term safety profile over DNP (CD-1 mice): drastically improved short-term safety profiles | reversing fatty liver (liver steatosis, H&E histology) [4]: highly efficacious in reversing fatty liver | reducing blood triglyceride levels and non-HDL cholesterol levels ([4]; 5 mg/kg/day gavage): efficacious | reducing blood glucose, blood insulin, and glycated HbA1c [5]: highly efficacious | minimal effective dose [5]: 2.5 mg/kg

COCCOCc1cc(C(F)(F)F)cc2sc(NC(=O)c3cc(Cl)cc(CN4C[C@@H](C)O[C@@H](C)C4)c3O)nc12 [Compound 64, 5-chloro-3-((cis-2,6-dimethylmorpholino)methyl)-2-hydroxy-N-(4-((2-methoxyethoxy)methyl)-6-(trifluoromethyl)benzo[d]thiazol-2-yl)benzamide]
minimal effective concentration (C2C12 cells): < 5 µM | effect on oxygen consumption rate (OCR) (C2C12 cells): increases OCR | acute toxicity profile over DNP (C57Bl6 mice): drastically improved acute toxicity profiles over DNP | minimal effective concentration [1]: 1 µM | inhibition of TGFβ-induced hepatic stellate cell differentiation [1]: effectively inhibit the differentiation process; also recorded: able to directly inhibit hepatic stellate cell (HSC) activation in vitro | inhibition of TGFβ-induced hepatic stellate cell differentiation ([1]; listed as Compound64): prevents TGFβ-induced differentiation of LX-2 cells | effect on mitochondrial membrane potential (MMP) [2]: minor loss of MMP; also recorded: without significantly decreasing MMP over a wide concentration range; also recorded: without drastically dissipating mitochondrial membrane potential | NOAEL at 240 h [3]: 40 mg/kg/day | short-term safety profile over DNP (CD-1 mice): drastically improved short-term safety profiles | reversing fatty liver (liver steatosis, H&E histology) [4]: highly efficacious in reversing fatty liver | reducing blood glucose, blood insulin, and glycated HbA1c [5]: highly efficacious | minimal effective dose [5]: 1 to 2.5 mg/kg
